These results are taken from patent US20100227895A1, “METHOD FOR TREATING EQUINE LAMINITIS” (MPCO- THE MAGIC POWDER COMPANY, priority 2009, published 2010).

The test system of one assay is equine laminitis. The experiment in a line: Oral treatment of horses with laminitis (case examples). The format is in vivo, horse. How it is done: The preferred form of practicing the present method will now be described for a horse weighing approximately 500 kg. In practicing the present method, the four main ingredients that are administered to prevent, treat and/or cure laminitis are: choline bitartrate, L-tyrosine, Niacin, and d-Calcium Pantothenate. These ingredients may be administered in corresponding approximate ratios of 40:41:8:16 (by weight). In the preferred embodiment, an approximately 35 day supply of the treatment includes 80 grams of choline bitartrate, 82 grams of L-tyrosine, 16 grams of niacin, and 32 grams of d-calcium pantothenate. Each dose for oral administration contains approximately 1127.5 mg of choline bitartrate, 1155.6 mg of L-tyrosine, 225.5 mg of niacin, and 451.1 mg of d-Calcium pantothenate. Preferably, this dosage is administered twice per day to an affected horse.
A quarter-horse mare first experienced laminitis at age 5 after exposure to septic waste from a failing septic field. This first bout with laminitis lasted roughly two years. At age 9, the mare was left on a heavily grazed pasture for one day and developed laminitis, the second onset of the disease during its life, presumably from exposure to fructans in grass. Transportation of the mare exacerbated the laminitis symptoms. The mare recovered gradually, but spent a lot of time lying down. […]

Another assay concerns NE synthesis. The note with it: analogous to the KM of the overall reaction; read-out: concentration of tyrosine at the half-maximal rate of NE synthesis; cited from earlier work.
Assay [1] concerns the target tyrosine hydroxylase (TH) (Homo sapiens, UniProt P07101). The note with it: concentration of T at which the reaction proceeds at 50% of the maximal rate; cited from earlier work.

Sequence of tyrosine hydroxylase (TH) (P07101 whole entry): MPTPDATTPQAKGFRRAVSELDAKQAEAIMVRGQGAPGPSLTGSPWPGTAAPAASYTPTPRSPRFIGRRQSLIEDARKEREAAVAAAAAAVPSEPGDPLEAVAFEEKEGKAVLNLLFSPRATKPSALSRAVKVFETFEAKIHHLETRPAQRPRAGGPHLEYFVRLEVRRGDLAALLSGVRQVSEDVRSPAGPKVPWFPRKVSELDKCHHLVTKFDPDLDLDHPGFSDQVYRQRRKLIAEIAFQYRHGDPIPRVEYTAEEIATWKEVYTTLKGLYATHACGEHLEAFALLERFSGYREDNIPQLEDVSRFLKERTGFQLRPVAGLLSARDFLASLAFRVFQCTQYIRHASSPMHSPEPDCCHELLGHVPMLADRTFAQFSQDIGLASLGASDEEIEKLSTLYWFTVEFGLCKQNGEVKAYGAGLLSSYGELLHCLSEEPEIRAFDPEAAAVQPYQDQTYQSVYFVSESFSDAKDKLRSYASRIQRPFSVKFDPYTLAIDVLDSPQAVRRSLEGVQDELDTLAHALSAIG

`N[C@@H](Cc1ccc(O)cc1)C(=O)O` [tyrosine, 4-hydroxyphenylalanine]: the “condition of the mare with laminitis” value in the assay with equine laminitis (Example 1, quarter-horse mare, second onset of laminitis, initial dosing, daily for nearly 90 days) is “improved the condition”. Moreover, in the assay with equine laminitis (Example 2, ten year-old mare, recommended dosage after the bout), the recurrence of laminitis result is recorded as “did not re-experience laminitis”. Further, the EC50 with NE synthesis was 10 to 40 µM. In addition, in assay [1], the Km was about 25 µM.
